Literature values in paper PMC7004556 (Cancer Science, 2020).

How the values were obtained:
FGFR pathway = conditions: cited from earlier work
advanced gastric cancer = advanced gastric cancer with FGFR2 polysomy or gene amplification; cited from earlier work
advanced solid tumors = conditions: Japanese patients with advanced solid tumors, duration ≥4 weeks; cited from earlier work
patients = conditions: phase I study, only at the highest dose investigated (12 mg); cited from earlier work

Row | Molecule | Serum phosphate (FGFR pathway) | Effect on progression‐free survival compared with paclitaxel (advanced gastric cancer) | Best response (advanced solid tumors) | Phosphate and 1,25‐(OH)2‐vitamin D (FGFR pathway; studies in solid tumors) | DLT observed (patients)
1 | AZD4547 | increase | no significant effect | stable disease | – | –
2 | COc1cc(OC)cc(N(CCNC(C)C)c2ccc3ncc(-c4cnn(C)c4)nc3c2)c1 [JNJ‐42756493] | – | – | – | increased | detachment of retinal pigment epithelium <grade 3 was the only DLT observed
